# From US20180021257A1, “WATER-SOLUBLE PHARMACEUTICAL COMPOSITION COMPRISING AT LEAST ONE THERAPEUTICALLY ACTIVE SUBSTANCE AND AT LEAST ONE SUBSTANCE CAPABLE OF FORMING MICELLES” (CONSEJO NACIONAL DE INVESTIGACIONES CIENTIFICAS Y TECNICAS …, priority 2015, published 2018)
# Values joined by “and” are separate entries in the source; they are usually repeats but may differ in a detail not shown here. Equal entries are not always repeated. Where two headings read alike, the source gives them in different places.
# Experiments:
# [1] = Solubility in aqueous medium; type: physicochemical
# [2] = in vivo; cited from earlier work
# HEP-2 = assay: In vitro cytotoxic activity in tumor cell culture (MTT test); type: cell-based; conditions: for Cell Death after 24 Hours of Treatment: HEP-2, MTT
# Procedure: Tumor cells, such as HEP-2, were incubated in MEM medium having fetal bovine serum by 2% (Natocor-Villa Carlos Paz—Cordoba—Argentina) in a CO2 incubator by 5% CO2, at confluence. Different concentrations of the compositions mentioned below were added to the cell culture: […]
# [3] = cited from earlier work; for Micelles stable (Daptomycin: and biologically active): at 25° C.
# [4] = Dialysis experiments on Teicoplanin micelles; type: physicochemical; conditions: after 48 hours of dialysis
# Procedure: In fact, in dialysis experiments, it was shown a loss of about 25% of molecules of Teicoplanin after 48 hours of dialysis, while for the Teico-Ptx complex is was shown a loss of about 5 to 8%.
# [5] = cited from earlier work
# [6] = Critical micelle concentration (CMC); type: physicochemical
# [7] = Loading of Ptx into antibiotic micelles, quantified by HPLC; type: physicochemical; conditions: Teicoplanin 200 mg/ml; Ptx concentration 2.5 mg/ml
# [8] = Particle size of micelles by dynamic light scattering (DLS); type: physicochemical; conditions: for Diameter of micelles: comparative study, dynamic light scattering
# Description: Determining Particle Size of Teico, Teico-Ptx and Teico-PTX-Alb Micelles by Dynamic Light Scattering (DLS)
# [9] = Loading of Ptx into antibiotic micelles, quantified by HPLC; type: physicochemical; conditions: for Ptx loaded (%): 30 minutes, Teicoplanina 100 mg/ml, Ptx added 5 mg; for Maximum load / loading capacity: Ptx or Dtx in micelles; for Ptx in Teicoplanin micelles: Teicoplanin 200 mg/ml
# Procedure: Samples with 400 mg of teicoplanin were dissolved in 2 ml of distilled water at pH 5.5 or in 2 ml of phosphate buffer solution of 20 mM at pH 6, with gentle stirring in order to obtain full dissolution. The solution was allowed to stand for at least 4 hours at 4° C. A 0.5 ml aliquot was incubated with 25 μl of DMSO having increasing amounts of Paclitaxel (Ptx) in order to reach the following final concentrations: 1 mg/ml, 5 mg/ml, 10 mg/ml and 20 mg/ml.
# The solutions were incubated at 25° C. for at least 4 hours and then centrifuged at 15,000×g for 10 minutes to remove the potential insoluble Ptx that had not encapsulated in teicoplanin micelles. Finally, in order to remove the remaining DMSO, the samples were dialyzed with a phosphate buffer solution of 20 mM at pH 6 for 12 hours. The quantification of Ptx introduced into teicoplanin micelles was carried out by using HPLC.
# Ptx is loaded into teicoplanin micelles at a concentration of 5 mg/ml, according to the description of Example 1, but for 30 minutes at 4° C., 25° C. and 37° C. After incubation, the samples were centrifuged at 15,000×g for 10 minutes and they were also dialyzed in distilled water for 12 hours at 4° C. Finally, the amount of Ptx introduced into the teicoplanin micelle in a soluble way was quantified by HPLC. […] The load in all conditions was higher than 90%.
# [10] = cited from earlier work; remark: listed apart in the source
# [11] = aqueous medium with teicoplanin micelles, aqueous with cosolvent or surfactant or cyclodextrin
# [12] = aqueous medium without micelles
molecule,measurement,setting,value
"CC(=O)O[C@@]12CO[C@@H]1C[C@H](O)[C@@]1(C)C(=O)[C@H](O)C3=C(C)[C@@H](OC(=O)[C@H](O)[C@@H](NC(=O)OC(C)(C)C)c4ccccc4)C[C@@](O)([C@@H](OC(=O)c4ccccc4)[C@H]21)C3(C)C [Dtx, Docetaxel]",solubility,[1]; [11],10000 µg/mL
same,solubility,[1]; [12],< 1 µg/mL
Teicoplanin,Half life,[2],70 to 100 h
same,Cell Death after 24 Hours of Treatment,HEP-2; Teico 5 μM control micelles without Ptx,0%
same,Effect on cells,HEP-2; Teicoplanin by itself,no effect
same,Micelles stable,[3]; at 4° C.,35 days
same,Micelles stable (Daptomycin: and biologically active),[3],48 hours
same,Interaction with red blood cells (RBCs),red blood cells (RBCs),neither Teicoplanin nor Teico-Ptx complex interact with red blood cells
same,Loss of molecules of Teicoplanin,[4],about 25%
same,Suggested maximum dose,[5]; to avoid unwanted side effects or cytotoxicity,20 mg/kg/day
same,CMC,[6],100 µM
same,Ptx in Teicoplanin micelles,[7],2.5 mg/mL
same,Size larger than Dapto and Dapto-Ptx micelles,[8],40%
same,Particle size,"[8]; DLS, Example 5",8 nm
same,Polydispersity index,"[8]; DLS, Example 5",0.017
same,Diameter of micelles,[8],8 nm
same,Ptx loaded (%),[9]; 4° C.,94%
same,Ptx loaded (%),[9]; 25° C.,96%
same,Ptx loaded (%),[9]; 37° C.,98%
same,Load capacity compared with Daptomycin,[9]; Dtx or Ptx,twice
same,Maximum load / loading capacity,[9],10 mg/mL
same,Maximum load / loading capacity,[9]; listed as Teicoplanin micelles,about 10 mg/ml
same,Ptx in Teicoplanin micelles,[9]; Ptx concentration 1 mg/ml,1 mg/mL
same,Ptx in Teicoplanin micelles,[9]; Ptx concentration 5 mg/ml,5 mg/mL
same,Ptx in Teicoplanin micelles,[9]; Ptx concentration 10 mg/ml,10 mg/mL
same,Ptx in Teicoplanin micelles,[9]; Ptx concentration 20 mg/ml,2 mg/mL
same,Ptx load,"[9]; in all conditions (4° C., 25° C. and 37° C.)",higher than 90%
CCCCCCCCCC(=O)N[C@@H](Cc1c[nH]c2ccccc12)C(=O)N[C@H](CC(N)=O)C(=O)N[C@@H](CC(=O)O)C(=O)N[C@@H]1C(=O)NCC(=O)N[C@@H](CCCN)C(=O)N[C@@H](CC(=O)O)C(=O)N[C@H](C)C(=O)N[C@@H](CC(=O)O)C(=O)NCC(=O)N[C@H](CO)C(=O)N[C@@H]([C@H](C)CC(=O)O)C(=O)N[C@@H](CC(=O)c2ccccc2N)C(=O)O[C@@H]1C [Daptomycin],Half life,[2],7 to 10 h
same,Micelles stable and biologically active,[3]; at 4° C.,48 hours
same,Micelles stable (Daptomycin: and biologically active),[3],12 hours
same,Suggested maximum dose,[5]; in vivo,10 to 12 mg/kg/day
same,CMC,"[10]; pH 4, listed as Dapto micelles",400 μg/ml and 250 μM
same,Concentration at which molecule remains soluble,[10]; pH 6.5,150000 µg/mL
same,Diameter of micelles,[8],5 nm
same,Maximum load / loading capacity,[9],5 mg/mL
"CC(=O)O[C@H]1C(=O)[C@@]2(C)[C@H]([C@H](OC(=O)c3ccccc3)[C@]3(O)C[C@H](OC(=O)[C@H](O)[C@@H](NC(=O)c4ccccc4)c4ccccc4)C(C)=C1C3(C)C)[C@]1(OC(C)=O)CO[C@@H]1C[C@@H]2O [Ptx, Paclitaxel]",Cell Death after 24 Hours of Treatment,HEP-2; Ptx 5 nM,10%
same,Cell Death after 24 Hours of Treatment,HEP-2; Ptx 10 nM,25%
same,Cell Death after 24 Hours of Treatment,HEP-2; Ptx 20 nM,40%
same,Cell Death after 24 Hours of Treatment,HEP-2; Ptx 50 nM,90%
same,Killing of tumor cells,HEP-2; in 24 hours up to a concentration of 50 ng/ml,complete killing
same,solubility,[1]; [11],10000 µg/mL
same,solubility,[1]; [12],< 1 µg/mL
